Assay results taken from article PMC6600545, “Novel Peptide-Based Inhibitors for Microtubule Polymerization in Phytophthora capsici” (International Journal of Molecular Sciences, 2019).
Values joined by “and” are separate entries in the source; they are usually repeats but may differ in a detail not shown here. Equal entries are not always repeated. Peptide text beside a SMILES is read from it. * marks the point of attachment. FITC = O=C1OC2(c3ccc(O)cc3Oc3cc(O)ccc32)c2ccc(NC(=S)*)cc21

Columns and labels:
P. capsici α, β-tubulin [1] = experiment: ELISA binding affinity of phages displaying tubulin-binding peptides (anti-M13 antibody); design: species or system Phytophthora capsici; conditions: phage displaying the peptide, 5 μg tubulin per well, OD 450 nm
Description: Phage display was conducted with the M13 phage library in an effort to identify specific binding peptides to α, β-tubulin proteins from P. capsici. After five rounds of biopanning toward each target protein, 169 phage clones for α-tubulin and 112 for β-tubulin were selected. […] Testing was done for all the phages with different sequences to estimate their binding affinities for α, β-tubulins of P. capsici.
Phages displaying α, β-tubulin binding peptides were prepared, and their concentrations were determined by measurement of plaque-forming units (pfu) per volume. The binding affinities of phages displaying α, β-tubulin binding peptides were determined by the ELISA method, as described previously. Briefly, α, β-tubulin binding peptides were added in a concentration-dependent manner to a 96-well plate containing α, β-tubulin protein (5 μg per well), as indicated. The wells were then washed 10 times with 1X TBST (50 mM Tris-HCl, pH 7.5, 150 mM NaCl, and 0.1% Tween-20), followed by probing with an anti-M13 antibody (mouse monoclonal antibody, 1:5000 in 1X TBST, 0.2 μg·ml^−1; Amersham Bioscience, Little Chalfont, UK) for 1 h at room temperature. After washing five times with 1 X TBST buffer, anti-mouse IgG-horseradish peroxidase (HRP) conjugate was added, and the mixture was incubated for 1 h, followed by a color-developing reaction with tetramethylbenzidine (TMB) substrate solution ([TMB]/H2O2; Chemicon, Billerica, MA, USA). After 15 min, the reaction was terminated by the addition of 1 M H2SO4, and the optical densities were measured at 450 nm with a Biotrak multiwall plate reader (Amersham Bioscience).

[2] = target: T1, P. capsici α, β-tubulin microtubule polymerization (Phytophthora capsici, UniProt A4ZYP2+A4ZYP4); experiment: Inhibition of microtubule polymerization by phages (turbidity at 350 nm); format: biochemical; conditions: phage 10 nM, 40 min reaction time
Description: As a next step, all 15 phages were used to determine whether the phages could inhibit the activity of microtubule polymerization of P. capsici. The concentration of each phage was constant at 10 nM, and the polymerization was measured after 40 min of reaction time.
(§1) The polymerization and inhibition of microtubule assembly were studied using a spectroscopic method. Purified α, β-tubulins were mixed with 120 μL of polymerization buffer (80 mM PIPES (pH 7.4), 1 mM EGTA, 1 mM MgCl2, and 5% v/v glycerol) to a final concentration of 0.5 mg/mL total tubulin in 300 μL final reaction mixture. The polymerization assay was initiated with the addition of 2.5 mM GTP, and the reaction was continued until it reached the saturation point for 40 min. The contents were mixed, and the resulting turbidity due to microtubule formation was measured at 350 nm using an Optizen 2120 UV spectrophotometer. […] Furthermore, the polymerization and inhibition of microtubule formation were also confirmed through sodium dodecyl sulfate–polyacrylamide gel electrophoresis (SDS-PAGE), Western blot, and transmission electron microscopy (TEM). For the TEM analysis, samples were prepared according to the protocol reported by Vulevic et al.. Briefly, 30 μL of the saturated product of the polymerization reaction was immediately diluted with 10 μL of 0.4% glutaraldehyde, and the mixture was incubated for 3 min at room temperature. Then, 10 μL of the solution was applied to a 200 mesh, copper/formvar-coated grid (EMS) for 1 min, which was sequentially washed using two drops of dH2O and stained for 2 min with a drop of 2% uranyl acetate. Excess stain was removed by blotting with filter paper. Samples were air-dried and later viewed under a TEM.

[3] = cited from earlier work
Excerpt: In the past decade, several new chemical classes which display potent antifungal activity targeting fungal α, β-tubulin have been developed such as zoxamide, inhibiting β-tubulin in Phytophthora sojae (P. sojae); methyl benzimidazole carbamate, (MBC) inhibiting β-tubulin in Podosphaera xanthii (P. xanthii); and benomyl. One of these microtubule-targeted fungicides is benomyl. In the presence of benomyl, the polymerization of tubulin to microtubules is inhibited resulting in retarded cell division.

P. capsici α, β-tubulin [4] = experiment: Fluorometric binding affinity of FITC-labeled synthetic peptides; design: species or system Phytophthora capsici; conditions: FITC-labeled peptide, immobilised tubulin in 96-well plate, 2 h, ex 495 / em 520 nm
Excerpt: These peptides were synthesized with FITC-label for detection of the difference in the fluorescence by the absence and presence of target binding using a fluorescence microplate reader (see the Materials and Methods).
(§2) Peptides were synthesized by AnyGen Inc. (Gwangju, Korea). To prevent unintended interaction with other molecules, the peptides used in this study were modified by acetylation at the N-terminus and amidation at the C-terminus. With the addition of a lysine residue, the peptides were labeled with FITC at the C-terminus. This labeling was used for the identification of the target binding property by means of fluorescence detection. The purity of the synthesized peptides was greater than 90%, as assessed by HPLC. The peptides were further characterized to estimate their binding affinity and specificity. Briefly, serial dilutions of FITC-labeled peptides were incubated with α, β-tubulin proteins immobilized on a 96-well plate for 2 h. The binding affinities of the FITC-labeled peptides were determined by a fluorescence microplate reader (Molecular Devices, Sunnyvale, CA, USA) using the soft Max V5 system, with excitation at 495 nm and emission at 520 nm. The specificities of identified peptides for the target proteins were evaluated using the same fluorometric method described above, incorporating homologous H. sapiens α, β-tubulin. BSA protein was used as a negative control.

H. sapiens α, β-tubulin = experiment: Fluorometric binding affinity of FITC-labeled synthetic peptides (specificity); conditions: FITC-labeled peptide, immobilised tubulin in 96-well plate, 2 h, ex 495 / em 520 nm
Excerpt: Investigation of the binding affinity for α, β-tubulins of H. sapiens to the synthesized peptides is necessary because peptide binding to H. sapiens tubulins could trigger severe toxicity in humans. First, α, β-tubulins of H. sapiens were individually overexpressed and purified (Figure 1). […] In addition, bovine serum albumin (BSA) was used as another control to confirm the specificity of the synthesized peptides. No significant binding fluorescence intensities for BSA were detected.
as §2

[5] = target: T1, P. capsici α, β-tubulin microtubule polymerization; experiment: biochemical
Description: The IC50 values of the four synthetic peptides were determined by fitting the relative inhibition data via the below Equation (1), where V0 is the reaction rate without inhibitor, Vf is the rate at saturation inhibition, and [I] is the inhibitor concentration. (1) V=(V0−Vf)×IC50/IC50+[I]+Vf
as §1

[6] = system: H. sapiens α, β-tubulin microtubule polymerization; experiment: Microtubule polymerization inhibition assay with synthetic peptides (turbidity at 350 nm); format: biochemical; conditions: 0.5 mg/mL total tubulin, 2.5 mM GTP, 40 min
Excerpt: (1) V=(V0−Vf)×IC50/IC50+[I]+Vf
Excess stain was removed by blotting with filter paper.

P. capsici microtubules = experiment: TEM analysis of polymerized microtubules; format: biochemical, Phytophthora capsici; conditions: polymerized for 40 min
Description: as §1, with “Excess stain was removed by blotting with filter paper. Samples were air-dried and later viewed under a TEM.” left out

T1 sequence (A4ZYP4 1-453): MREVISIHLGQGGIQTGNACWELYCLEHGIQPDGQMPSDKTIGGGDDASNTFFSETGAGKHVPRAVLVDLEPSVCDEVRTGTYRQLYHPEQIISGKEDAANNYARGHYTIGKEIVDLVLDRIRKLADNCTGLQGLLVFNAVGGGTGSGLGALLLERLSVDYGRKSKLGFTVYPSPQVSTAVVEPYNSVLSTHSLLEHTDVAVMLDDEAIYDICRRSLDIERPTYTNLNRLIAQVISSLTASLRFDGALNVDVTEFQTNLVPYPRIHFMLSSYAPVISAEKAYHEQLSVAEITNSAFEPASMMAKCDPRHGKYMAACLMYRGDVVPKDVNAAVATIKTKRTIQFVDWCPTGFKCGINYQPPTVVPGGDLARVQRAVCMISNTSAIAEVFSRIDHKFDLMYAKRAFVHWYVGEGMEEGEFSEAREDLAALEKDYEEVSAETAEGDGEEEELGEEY
T1 sequence (A4ZYP2 1-446): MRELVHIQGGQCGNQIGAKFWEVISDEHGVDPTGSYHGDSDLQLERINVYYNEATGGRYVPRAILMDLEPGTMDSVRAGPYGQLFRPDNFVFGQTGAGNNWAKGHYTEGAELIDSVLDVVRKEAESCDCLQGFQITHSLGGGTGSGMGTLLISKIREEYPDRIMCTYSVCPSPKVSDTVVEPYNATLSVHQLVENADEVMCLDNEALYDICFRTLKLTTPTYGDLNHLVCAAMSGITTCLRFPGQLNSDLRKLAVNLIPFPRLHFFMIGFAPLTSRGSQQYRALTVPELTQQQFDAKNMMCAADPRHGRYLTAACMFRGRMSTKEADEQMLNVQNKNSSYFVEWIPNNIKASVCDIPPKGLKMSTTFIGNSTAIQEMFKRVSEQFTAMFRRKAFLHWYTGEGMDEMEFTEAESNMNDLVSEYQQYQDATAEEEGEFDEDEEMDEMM

Compound	Kd (P. capsici α, β-tubulin [1])	percent inhibition of microtubule polymerization [2]	further results
NFTINGKTHRLW [α_P4]	0.298 ± 0.00145 nM	19%	
SNMKPSMEYSSR [α_P9, M13 phage clone displaying 12-mer […], selected against P. capsici α-tubulin]	0.273 ± 0.00179 nM		
CCCCNC(=O)n1c(NC(=O)OC)nc2ccccc21 [benomyl]			solubility in water [3]: low solubility
KVYAINSWTNYY [α_P13, M13 phage clone displaying 12-mer […], selected against P. capsici α-tubulin]	1.2 ± 0.0902 nM		
IGNSWPLTSHSW [α_P10, M13 phage clone displaying 12-mer […], selected against P. capsici α-tubulin]	0.144 ± 0.0011 nM		
CC(=O)N[C@H](C(=O)N[C@@H](CC(N)=O)C(=O)N1CCC[C@H]1C(=O)N[C@@H](CCC(N)=O)C(=O)N[C@@H](C)C(=O)N[C@@H](CCCNC(=N)N)C(=O)N[C@@H](Cc1c[nH]c2ccccc12)C(=O)N[C@@H](Cc1c[nH]cn1)C(=O)N[C@@H](CCC(=O)O)C(=O)N[C@@H](Cc1ccc(O)cc1)C(=O)N[C@@H](CC(N)=O)C(=O)N[C@@H](Cc1ccccc1)C(=O)N[C@@H](CCCCNC(=S)Nc1ccc2c(c1)C(=O)OC21c2ccc(O)cc2Oc2cc(O)ccc21)C(N)=O)[C@@H](C)O [β_P1] (Ac-TNPQARWHEYNFK(FITC)-NH2)	0.0419 ± 0.00105 nM	21%	Kd (P. capsici α, β-tubulin [4]): 49.7 ± 2.9 nM; Kd (H. sapiens α, β-tubulin): 455 ± 50.7 nM; IC50 [5]: 6910 nM
CC(=O)N[C@H](C(=O)N[C@@H](CC(N)=O)C(=O)N[C@H](C(=O)N[C@@H](CO)C(=O)N[C@@H](Cc1c[nH]c2ccccc12)C(=O)N[C@@H](CC(=O)O)C(=O)N1CCC[C@H]1C(=O)N[C@@H](CCC(N)=O)C(=O)N[C@@H](Cc1ccc(O)cc1)C(=O)N[C@@H](CC(N)=O)C(=O)N1CCC[C@H]1C(=O)N[C@@H](CC(=O)O)C(=O)N[C@@H](CCCCNC(=S)Nc1ccc2c(c1)C(=O)OC21c2ccc(O)cc2Oc2cc(O)ccc21)C(N)=O)[C@@H](C)O)[C@@H](C)O [α_P2] (Ac-TNTSWDPQYNPDK(FITC)-NH2)	0.0801 ± 0.00113 nM	54%	Kd (P. capsici α, β-tubulin [4]): 93.9 ± 11.2 nM; Kd (H. sapiens α, β-tubulin): 256 ± 31.1 nM; IC50 [5]: 802 nM; IC50 [6]: 2430 nM; microtubule morphology by TEM (P. capsici microtubules; 1 μM peptide): Amorphous morphology of microtubules occurred predominantly; microtubule formation by TEM (P. capsici microtubules; Ten micromolar peptide): completely inhibited the formation of microtubules
NPIGDNYSGTGL [β_P2]	0.0371 ± 0.00141 nM	2%	
MVHSKASMWPGK [α_P12, M13 phage clone displaying 12-mer […], selected against P. capsici α-tubulin]	0.69 ± 0.00227 nM		
TNTSWDPQYNPD [α_P8, M13 phage clone displaying 12-mer […]; (so in the source), selected against P. capsici α-tubulin]	0.0476 ± 0.00251 nM	4%	
CC[C@H](C)[C@H](NC(C)=O)C(=O)N[C@H](C(=O)N[C@@H](CCSC)C(=O)N[C@@H](CO)C(=O)N[C@H](C(=O)N1CCC[C@H]1C(=O)N[C@@H](C)C(=O)N[C@@H](Cc1c[nH]cn1)C(=O)N[C@@H](CC(N)=O)C(=O)N[C@@H](C)C(=O)N[C@@H](CCCCN)C(=O)N[C@@H](CCC(=O)O)C(=O)N[C@@H](CCCCNC(=S)Nc1ccc2c(c1)C(=O)OC21c2ccc(O)cc2Oc2cc(O)ccc21)C(N)=O)C(C)C)[C@@H](C)O [α_P1] (Ac-ITMSVPAHNAKEK(FITC)-NH2)	0.0342 ± 0.00211 nM	28%	Kd (P. capsici α, β-tubulin [4]): 69.5 ± 6.4 nM; Kd (H. sapiens α, β-tubulin): 134 ± 48.8 nM; IC50 [5]: 2690 nM
SYNTFMYERASK [α_P11, M13 phage clone displaying 12-mer […], selected against P. capsici α-tubulin]	0.562 ± 0.00169 nM		
NAITLLSPPLHK [α_P5]	0.0571 ± 0.00177 nM	5% and 4%	
LMNPATMKTSSG [α_P7, M13 phage clone displaying 12-mer […], selected against P. capsici α-tubulin]	0.36 ± 0.00187 nM		
CC(=O)N[C@@H](CC(N)=O)C(=O)N[C@@H](Cc1c[nH]cn1)C(=O)N[C@@H](Cc1ccccc1)C(=O)N[C@H](C(=O)N1CCC[C@H]1C(=O)N[C@H](C(=O)N[C@@H](CO)C(=O)N[C@@H](CC(N)=O)C(=O)N[C@@H](CCCNC(=N)N)C(=O)N[C@@H](Cc1ccccc1)C(=O)N[C@@H](CC(N)=O)C(=O)N[C@@H](C)C(=O)N[C@@H](CCCCNC(=S)Nc1ccc2c(c1)C(=O)OC21c2ccc(O)cc2Oc2cc(O)ccc21)C(N)=O)[C@@H](C)O)C(C)C [α_P3] (Ac-NHFVPTSNRFNAK(FITC)-NH2)	0.12 ± 0.00123 nM	32%	Kd (P. capsici α, β-tubulin [4]): 79.2 ± 6.8 nM; Kd (H. sapiens α, β-tubulin): 162 ± 8.1 nM; IC50 [5]: 1240 nM; IC50 [6]: 4110 nM
SSHNHDSYHGTK [α_P6, M13 phage clone displaying 12-mer […], selected against P. capsici α-tubulin]	0.476 ± 0.00273 nM		
